Reference: patent US5397705A, “Multiply mutated subtilisins” (Amgen Inc., priority 1992, dated 1995)
Where a SMILES comes first, the peptide text is derived from it.

How the values were obtained:
Test in all cases: Kinetics of hydrolysis of succinyl Ala-Ala-Pro-Phe-para-nitroanilide by the subtilisin analog
[1] = molecular target: T1, Bacillus subtilis aprA subtilisin analog [Asp^76, Ser^109, Ser^218] (Asn76Asp, Asn109Ser, Asn218Ser) (Bacillus subtilis, UniProt P04189, N182D/N215S/N324S); type: biochemical; conditions: substrate succinyl Ala-Ala-Pro-Phe-para-nitroanilide
T1 construct: made in house; host or cells: Bacillus subtilis (plasmid pAMB131)
T1 sequence (P04189 107-381 N182D/N215S/N324S): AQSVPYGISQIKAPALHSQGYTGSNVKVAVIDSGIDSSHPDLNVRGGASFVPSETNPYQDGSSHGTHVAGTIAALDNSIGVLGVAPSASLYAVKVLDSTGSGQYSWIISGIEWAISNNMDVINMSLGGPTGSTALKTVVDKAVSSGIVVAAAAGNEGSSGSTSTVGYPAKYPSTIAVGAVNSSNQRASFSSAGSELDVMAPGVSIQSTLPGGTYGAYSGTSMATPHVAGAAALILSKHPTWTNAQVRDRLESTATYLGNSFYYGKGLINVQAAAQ
From the text: (§1) As mentioned earlier, analog [Asp^76, Ser^109, Ser^218, Ala^222 ] has a lower specific activity toward azocasein than analog [Asp^76, Ser^109, Ser^218 ], with an approximate Vm of 0.02 dA/(min-mg/ml) versus 0.08 dA/(min-mg/ml) for [Asp^76, Ser^109, Ser^218 ]. To see if this decreased activity was specific for azocasein, or a general characteristic of the [Asp^76, Ser^109, Ser^218, Ala^222 ] analog, the kinetics of the hydrolysis of the artificial peptide succinyl Ala-Ala-Pro-Phe-para-nitroanilide was analyzed for [Asp^76, Ser^109, Ser^218, Ala^222 ] and [Asp^76, Set^109, Ser^218 ]. […] This specific activity is 4-fold less than that of aprA-subtilisin. The catalytic Ser is at position 221, and it appears that substitutions at position 222 interfere with substrate binding as well as with the rate limiting step of proteolysis.

[2] = molecular target: T2, Bacillus subtilis aprA subtilisin analog [Asp^76, Ser^109, Ser^218, Ala^222] (Asn76Asp, Asn109Ser, Asn218Ser, Met222Ala) (Bacillus subtilis, UniProt P04189, M328A/N182D/N215S/N324S); type: biochemical; conditions: substrate succinyl Ala-Ala-Pro-Phe-para-nitroanilide
T2 construct: made in house; host or cells: Bacillus host cells (plasmid pAMB143)
T2 sequence (P04189 107-381 N182D/N215S/N324S/M328A): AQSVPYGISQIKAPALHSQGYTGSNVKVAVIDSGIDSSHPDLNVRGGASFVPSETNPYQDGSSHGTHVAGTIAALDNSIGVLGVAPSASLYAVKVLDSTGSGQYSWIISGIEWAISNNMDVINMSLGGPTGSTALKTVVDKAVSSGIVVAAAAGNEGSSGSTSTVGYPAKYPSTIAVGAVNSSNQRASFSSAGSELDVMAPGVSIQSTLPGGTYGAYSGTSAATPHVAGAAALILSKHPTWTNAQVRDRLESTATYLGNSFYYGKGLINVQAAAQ
From the text: as §1

[3] = substrate: C[C@H](NC(=O)CCC(=O)O)C(=O)N[C@@H](C)C(=O)N1CCC[C@H]1C(=O)N[C@@H](Cc1ccccc1)C(=O)Nc1ccc([N+](=O)[O-])cc1; type: biochemical, Bacillus subtilis; conditions: other: substrate succinyl Ala-Ala-Pro-Phe-para-nitroanilide
From the text: as §1

In the case of `C[C@H](NC(=O)CCC(=O)O)C(=O)N[C@@H](C)C(=O)N1CCC[C@H]1C(=O)N[C@@H](Cc1ccccc1)C(=O)Nc1ccc([N+](=O)[O-])cc1` [succinyl-L-alanyl-L-alanyl-L-prolyl-L-phenylalanyl-p-nitroanilide] (HELM PEPTIDE1{[O=C(O)CCC(=O)[*:2]].A.A.P.F.[O=[N+]([O-])c1ccc(N[*:1])cc1]}$$$$V2.0), the Vmax [1] is reported as 7.9 dA/(min-nmole) and the Vmax [2] is reported as 1.1 dA/(min-nmole).

B1: Bacillus subtilis aprA subtilisin analog [Asp^76, Ser^109, Ser^218] (Asn76Asp, Asn109Ser, Asn218Ser) (Bacillus subtilis subsp. subtilis str. 168; … (protein)
chain: AQSVPYGISQIKAPALHSQGYTGSNVKVAVIDSGIDSSHPDLNVRGGASFVPSETNPYQDGSSHGTHVAGTIAALDNSIGVLGVAPSASLYAVKVLDSTGSGQYSWIISGIEWAISNNMDVINMSLGGPTGSTALKTVVDKAVSSGIVVAAAAGNEGSSGSTSTVGYPAKYPSTIAVGAVNSSNQRASFSSAGSELDVMAPGVSIQSTLPGGTYGAYSGTSMATPHVAGAAALILSKHPTWTNAQVRDRLESTATYLGNSFYYGKGLINVQAAAQ
notes: made in house; host or cells: Bacillus subtilis (plasmid pAMB131)
Molecule B1 has a Km ([3]; analog [Asp^76, Ser^109, Ser^218]) of 440 µM.

B2: Bacillus subtilis aprA subtilisin analog [Asp^76, Ser^109, Ser^218, Ala^222] (Asn76Asp, Asn109Ser, Asn218Ser, Met222Ala) (Bacillus subtilis subsp. subtilis … (protein)
chain: AQSVPYGISQIKAPALHSQGYTGSNVKVAVIDSGIDSSHPDLNVRGGASFVPSETNPYQDGSSHGTHVAGTIAALDNSIGVLGVAPSASLYAVKVLDSTGSGQYSWIISGIEWAISNNMDVINMSLGGPTGSTALKTVVDKAVSSGIVVAAAAGNEGSSGSTSTVGYPAKYPSTIAVGAVNSSNQRASFSSAGSELDVMAPGVSIQSTLPGGTYGAYSGTSAATPHVAGAAALILSKHPTWTNAQVRDRLESTATYLGNSFYYGKGLINVQAAAQ
notes: made in house; host or cells: Bacillus host cells (plasmid pAMB143)
With B2 the Km ([3]; analog [Asp^76, Ser^109, Ser^218, Ala^222]) was 1400 µM.
